Assay results from PubChem BioAssay AID493147 (Broad Institute, 2011).
“And” between values parts separate entries of the source, which are not always exact repeats. Identical values can stand only once. Inconclusive results are not listed. The source made the active and inactive calls. No rule for the calls is given here.

test system: NIH-3T3 viability with fluconazole, Alamar Blue, 48 h; experiment: PubChem AID 493147; settings: not given

With `COC(=O)Cn1nc(-c2cccc(F)c2)c2ccccc21` as the compound, how does the AC50 read?
The AC50 was 12.8 µM.

With `COC(=O)Cn1c2ccccc2c2nc3n(c(=O)c21)CCS3` as the compound, how does the AC50 read?
The AC50 was 2.67 µM.

With `COc1ccc(C(=O)N2CCN(c3ccccn3)CC2)cc1` as the compound, how does the AC50 read?
The AC50 was 0.461 µM.

For `COc1ccc(NC(=O)Cn2c3ccccc3c3nc4n(c(=O)c32)CCS4)cc1`, which AC50 is on record?
Its AC50 is 14.9 µM.

With `O=C(Cn1nc(-c2ccccc2)c2ccccc21)NCc1ccc(Cl)cc1` as the compound, how does the AC50 read?
Its AC50 is 25.9 µM.

For `COC(=O)Cn1nc(I)c2ccccc21`, which AC50 is on record?
Its AC50 is 0.528 µM.

Which AC50 does the source give for `COC(=O)Cn1ncc2ccccc21` here?
Its AC50 is under 0.1 µM.

With `O=C(c1ccc(Cl)cc1)N1CCN(c2cccc(C(F)(F)F)n2)CC1` as the compound, how does the AC50 read?
The AC50 was 17.6 µM.

Which AC50 does the source give for `COC(=O)Cn1nc(-c2ccccc2)c2ccc(OC)cc21` here?
Its AC50 is under 0.1 µM.

With `COC(=O)Cn1nc(-c2ccccc2OC)c2ccccc21` as the compound, how does the AC50 read?
The AC50 was 1.04 µM.

For `CC1CCN(C(=O)Cn2c3ccccc3c3nc4n(c(=O)c32)CCS4)CC1`, which AC50 is on record?
The AC50 was > 26 µM (inactive).

Which AC50 does the source give for `COc1cccnc1N1CCN(C(=O)c2ccc(Cl)cc2)CC1` here?
Its AC50 is 0.124 µM.

With `Cc1cccc(N2CCN(C(=O)c3ccc(Cl)cc3)CC2)n1` as the compound, how does the AC50 read?
Its AC50 is 0.12 µM.

With `O=C(Cn1c2ccccc2c2nc3n(c(=O)c21)CCS3)N1CCCC1` as the compound, how does the AC50 read?
Its AC50 is under 0.1 µM.

For `O=C(Cn1nc(-c2ccccc2)c2ccccc21)OC1CCC1`, which AC50 is on record?
The AC50 was 0.191 µM.

For `COC(=O)Cn1nc(-c2ccc(OC)cc2)c2ccccc21`, which AC50 is on record?
The AC50 was 1.02 µM.

Which AC50 does the source give for `O=C(c1ccc(Cl)cc1)N1CCN(c2nc3ccccc3o2)CC1` here?
The AC50 was 24.2 µM.

Which AC50 does the source give for `Cc1ccc(N2CCN(C(=O)c3ccc(Cl)cc3)CC2)nc1` here?
Its AC50 is > 26 µM (inactive).

For `COC(=O)Cn1nc(-c2ccc(C(F)(F)F)cc2)c2ccccc21`, which AC50 is on record?
Its AC50 is under 0.1 µM.

test system: not listed separately; experiment: PubChem AID 493147; settings: NIH-3T3 viability with fluconazole, Alamar Blue, 48 h; at 2.6 µM (top of the series)

For `COc1ccc2c(c1)c1nc3n(c(=O)c1n2CC(=O)N1CCC(C)CC1)CCS3`, which activity change, negative = toxicity is on record?
Its activity change, negative = toxicity is 41.3% (inactive).

same assay, conditions: NIH-3T3 viability with fluconazole, Alamar Blue, 48 h; at 26 µM (top of the series)

With `O=c1c2[nH]c3ccc(F)cc3c2nc2n1CCS2` as the compound, how does the activity change, negative = toxicity read?
The activity change, negative = toxicity was 9.27% (inactive).

Which activity change, negative = toxicity does the source give for `O=C1OCCC1n1nc(-c2ccccc2)c2ccccc21` (configuration not stated) here?
The activity change, negative = toxicity was 4.08% (inactive).

For `COC(=O)Cn1nc(-c2ccccc2)c2ccc(C(F)(F)F)cc21`, which activity change, negative = toxicity is on record?
Its activity change, negative = toxicity is -18.2% (inactive) and -8.9% (inactive).

With `O=C(Cn1nc(-c2ccccc2)c2ccccc21)Oc1ccccc1` as the compound, how does the activity change, negative = toxicity read?
The activity change, negative = toxicity was 26.7% (inactive).

With `CC(C)OC(=O)Cn1nc(-c2ccccc2)c2ccccc21` as the compound, how does the activity change, negative = toxicity read?
The activity change, negative = toxicity was 11.4% (inactive).

With `CCN(CC)C(=O)Cn1c2ccc(F)cc2c2nc3n(c(=O)c21)CCS3` as the compound, how does the activity change, negative = toxicity read?
The activity change, negative = toxicity was -39.8% (inactive).

With `O=C(Cn1c2ccccc2c2nc3n(c(=O)c21)CCS3)N1CCCCC1` as the compound, how does the activity change, negative = toxicity read?
The activity change, negative = toxicity was -8.42% (inactive).

For `Cc1nn(S(C)(=O)=O)c2ccccc12`, which activity change, negative = toxicity is on record?
The activity change, negative = toxicity was -19.3% (inactive).

With `COC(=O)[C@@H](C)n1nc(-c2ccccc2)c2ccccc21` (racemic) as the compound, how does the activity change, negative = toxicity read?
The activity change, negative = toxicity was -17.9% (inactive).

For `O=C(c1ccc(F)cc1)N1CCN(c2ccccn2)CC1`, which activity change, negative = toxicity is on record?
Its activity change, negative = toxicity is -8.14% (inactive).

With `N#CCn1nc(-c2ccccc2)c2ccccc21` as the compound, how does the activity change, negative = toxicity read?
The activity change, negative = toxicity was 8% (inactive).

With `COC(=O)C(C)(C)n1nc(-c2ccccc2)c2ccccc21` as the compound, how does the activity change, negative = toxicity read?
The activity change, negative = toxicity was -1.11% (inactive).

With `N#Cc1cccc(N2CCN(C(=O)c3ccc(Cl)cc3)CC2)n1` as the compound, how does the activity change, negative = toxicity read?
Its activity change, negative = toxicity is -27.5% (inactive).

For `O=C(O)Cn1nc(-c2ccccc2)c2ccccc21`, which activity change, negative = toxicity is on record?
Its activity change, negative = toxicity is -23% (inactive).

For `CCCCC(=O)N1CCN(c2ccccn2)CC1`, which activity change, negative = toxicity is on record?
The activity change, negative = toxicity was 5.32% (inactive).

For `COC(=O)CCCn1nc(-c2ccccc2)c2ccccc21`, which activity change, negative = toxicity is on record?
The activity change, negative = toxicity was -45% (inactive).

Which activity change, negative = toxicity does the source give for `COC(=O)Cn1nc(-c2cccc(OC)c2)c2ccccc21` here?
Its activity change, negative = toxicity is -29.2% (inactive).

Which activity change, negative = toxicity does the source give for `c1ccc(-c2nn(Cc3ncco3)c3ccccc23)cc1` here?
Its activity change, negative = toxicity is -36.1% (inactive).

With `COCCC(=O)N1CCN(c2ccccn2)CC1` as the compound, how does the activity change, negative = toxicity read?
Its activity change, negative = toxicity is 2.45% (inactive).

With `CC(C)(C)OC(=O)Cn1nc(-c2ccccc2)c2ccccc21` as the compound, how does the activity change, negative = toxicity read?
The activity change, negative = toxicity was 20.8% (inactive).

For `COC(=O)Cn1nc(-c2ccccc2)c2cc(Cl)ccc21`, which activity change, negative = toxicity is on record?
The activity change, negative = toxicity was -3.67% (inactive).

For `CCCNC(=O)Cn1nc(-c2ccccc2)c2ccccc21`, which activity change, negative = toxicity is on record?
Its activity change, negative = toxicity is 20.3% (inactive).

For `O=C(Cn1c2ccc(F)cc2c2nc3n(c(=O)c21)CCS3)N1CCCCC1`, which activity change, negative = toxicity is on record?
The activity change, negative = toxicity was -20.6% (inactive).

Which activity change, negative = toxicity does the source give for `COC(=O)Cn1c(-c2ccccc2)nc2ccccc21` here?
Its activity change, negative = toxicity is 10.3% (inactive).

With `O=C(Cn1c2ccccc2c2nc3n(c(=O)c21)CCS3)N1CCOCC1` as the compound, how does the activity change, negative = toxicity read?
Its activity change, negative = toxicity is -8.2% (inactive).

For `O=C(O)c1nn(Cc2ccc(Cl)cc2)c2ccccc12`, which activity change, negative = toxicity is on record?
Its activity change, negative = toxicity is -35.3% (inactive).

With `COC(=O)Cn1nc(-c2ccccc2)c2cc(C)ccc21` as the compound, how does the activity change, negative = toxicity read?
The activity change, negative = toxicity was 3.35% (inactive).

For `N#Cc1ccc(N2CCN(C(=O)c3ccc(Cl)cc3)CC2)nc1`, which activity change, negative = toxicity is on record?
Its activity change, negative = toxicity is -32.5% (inactive).

With `O=C(c1cccc(Cl)c1)N1CCN(c2ccccn2)CC1` as the compound, how does the activity change, negative = toxicity read?
Its activity change, negative = toxicity is -4.09% (inactive).

For `COC(=O)Cn1nc(-c2ccc(C)cc2)c2ccccc21`, which activity change, negative = toxicity is on record?
Its activity change, negative = toxicity is -25% (inactive).

Which activity change, negative = toxicity does the source give for `Cc1ccnc(N2CCN(C(=O)c3ccc(Cl)cc3)CC2)c1` here?
Its activity change, negative = toxicity is -20% (inactive).

With `COC(=O)Cn1nc(-c2ccccc2)c2ccccc21` as the compound, how does the activity change, negative = toxicity read?
Its activity change, negative = toxicity is -33.7% (inactive).

With `COC(=O)Cn1nc(-c2ccc(Cl)cc2)c2ccccc21` as the compound, how does the activity change, negative = toxicity read?
Its activity change, negative = toxicity is -6.09% (inactive).

For `CC(C)C(=O)N1CCN(c2ccccn2)CC1`, which activity change, negative = toxicity is on record?
Its activity change, negative = toxicity is 10% (inactive).

For `COC(=O)Cn1nc(-c2ccccc2)c2ccc(C)cc21`, which activity change, negative = toxicity is on record?
Its activity change, negative = toxicity is 16.9% (inactive).

With `N#Cc1ccc(C(=O)N2CCN(c3ccccn3)CC2)cc1` as the compound, how does the activity change, negative = toxicity read?
The activity change, negative = toxicity was 15.4% (inactive).

For `O=C(Cn1c2ccccc2c2nc3n(c(=O)c21)CCS3)N1CCCC1`, which activity change, negative = toxicity is on record?
Its activity change, negative = toxicity is -33.6% (inactive) and 2.45% (inactive).

For `O=C(Cn1c2ccccc2c2nc3n(c(=O)c21)CCS3)NCCc1ccc(Cl)cc1`, which activity change, negative = toxicity is on record?
Its activity change, negative = toxicity is -12% (inactive).

For `COC(=O)Cn1nc(C)c2ccccc21`, which activity change, negative = toxicity is on record?
The activity change, negative = toxicity was -17.5% (inactive).

Which activity change, negative = toxicity does the source give for `COC(=O)Cn1nc(-c2ccc(F)cc2)c2ccccc21` here?
Its activity change, negative = toxicity is -40.8% (inactive).

With `O=C(Cn1nc(C(=O)N2CCCCC2)c2ccccc21)N1CCOCC1` as the compound, how does the activity change, negative = toxicity read?
The activity change, negative = toxicity was -3.68% (inactive).

Which activity change, negative = toxicity does the source give for `COC(=O)Cn1nc(-c2ccccc2)c2cc(OC)ccc21` here?
The activity change, negative = toxicity was -0.175% (inactive).

For `O=C(c1ccccc1Cl)N1CCN(c2ccccn2)CC1`, which activity change, negative = toxicity is on record?
The activity change, negative = toxicity was -3.33% (inactive).

With `COC(=O)Cn1nc(-c2ccccc2C)c2ccccc21` as the compound, how does the activity change, negative = toxicity read?
Its activity change, negative = toxicity is 24.8% (inactive).

With `COCCn1nc(-c2ccccc2)c2ccccc21` as the compound, how does the activity change, negative = toxicity read?
The activity change, negative = toxicity was -7.82% (inactive).

Which activity change, negative = toxicity does the source give for `O=c1c2[nH]c3ccccc3c2nc2n1CCS2` here?
The activity change, negative = toxicity was -31.6% (inactive).

For `O=C(c1ccc(Cl)cc1)N1CCN(c2ccc(C(F)(F)F)cn2)CC1`, which activity change, negative = toxicity is on record?
Its activity change, negative = toxicity is 0.409% (inactive).

Which activity change, negative = toxicity does the source give for `COc1ccc2c(c1)c1nc3n(c(=O)c1n2CC(=O)N1CCC(Cc2ccccc2)CC1)CCS3` here?
Its activity change, negative = toxicity is 8.36% (inactive).

With `CNC(=O)Cn1nc(-c2ccccc2)c2ccccc21` as the compound, how does the activity change, negative = toxicity read?
Its activity change, negative = toxicity is 2.83% (inactive).

With `O=C(C1CCCCC1)N1CCN(c2ccccn2)CC1` as the compound, how does the activity change, negative = toxicity read?
Its activity change, negative = toxicity is -25.3% (inactive).

Which activity change, negative = toxicity does the source give for `O=C(Cn1c2ccc(F)cc2c2nc3n(c(=O)c21)CCS3)N1CCCCCC1` here?
The activity change, negative = toxicity was 21.2% (inactive).

Which activity change, negative = toxicity does the source give for `O=C(c1ccc(Cl)cc1)N1CCN(c2ncccc2C(F)(F)F)CC1` here?
The activity change, negative = toxicity was -31.9% (inactive).
